The data set has as its target T1, hOATP1B1 (Homo sapiens, UniProt Q9Y6L6).
T1 construct: expressed in transfected cells; host or cells: 293 cells (control: empty vector)
T1 sequence (Q9Y6L6 1-691): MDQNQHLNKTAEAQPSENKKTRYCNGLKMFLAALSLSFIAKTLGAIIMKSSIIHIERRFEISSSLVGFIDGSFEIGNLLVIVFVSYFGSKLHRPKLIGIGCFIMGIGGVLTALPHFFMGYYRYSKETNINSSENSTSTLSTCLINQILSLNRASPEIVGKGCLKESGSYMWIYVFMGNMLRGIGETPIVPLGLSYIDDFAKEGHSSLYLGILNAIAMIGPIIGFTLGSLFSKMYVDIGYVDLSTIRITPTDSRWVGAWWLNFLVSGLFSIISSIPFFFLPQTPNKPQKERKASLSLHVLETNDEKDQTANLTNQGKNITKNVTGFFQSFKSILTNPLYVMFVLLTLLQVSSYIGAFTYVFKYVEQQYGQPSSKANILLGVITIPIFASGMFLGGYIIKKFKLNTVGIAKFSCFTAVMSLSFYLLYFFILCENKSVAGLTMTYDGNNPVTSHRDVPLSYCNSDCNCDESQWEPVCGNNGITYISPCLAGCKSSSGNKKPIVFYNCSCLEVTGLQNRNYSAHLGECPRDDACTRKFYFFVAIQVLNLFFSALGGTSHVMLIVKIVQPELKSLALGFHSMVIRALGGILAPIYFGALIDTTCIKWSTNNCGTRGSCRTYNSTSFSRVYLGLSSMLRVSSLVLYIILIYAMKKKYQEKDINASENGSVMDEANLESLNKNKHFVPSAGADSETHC
Put plainly: Inhibition of hOATP1B1-mediated 3H-estrone sulfate uptake, stably transfected 293 cells. It counts as cell-based. Particulars: substrate 0.01 μM 3H-estrone sulfate, median (95% CI). The source says: We characterized the inhibitory potential of iohexol on major drug transporters recommended by regulatory agencies, which were previously assessed in a clinical transporter phenotyping cocktail study. These transporters include hOAT1, hOAT3, hOCT1, hOCT2, hMATE1, hMATE2K, human organic anion transporter polypeptides (hOATP)1B1, hOATP1B3, and human multidrug resistance protein (hMDR)1. Additionally, we investigated whether iohexol is a substrate for any of the renal transporters among these, including hOAT1/3, hOCT1/2, and hMATE1/2K. Cell‐based uptake assays were used to assess the activities of hOAT1/3, hOCT1/2, hMATE1/2K, and hOATP1B1/1B3. Inside‐out membrane vesicle uptake assays were used to evaluate the activity of hMDR1.
To determine the maximal inhibitory potential of iohexol, intracellular accumulation of a standard substrate was measured with and without the clinically relevant highest concentrations of iohexol. Control inhibitors were tested in each experiment.
In all subsequent in vitro studies, control experiments were conducted to validate the results. […] Each condition, including cells or vesicles with the transporter and their respective controls, was analyzed in at least three replicates. […]
Uptake assays were carried out with stably transfected 293 cells expressing hOATP1B1 or hOATP1B3, as well as cells containing an empty vector, using the method described by Hsin CH, et al..^1 For the inhibition assays, cells were incubated with the radiolabeled standard substrates specific to each transporter: 0.01 μM ^3H-estrone sulfate for hOATP1B1, and 0.02 μM ^3H-bromosulphophthalein (BSP) for hOATP1B3. […] The accumulation of radio-labelled probe substrates (^3H) in the cell lysate is determined using a Tri-Carb 2810 liquid scintillation counter (PerkinElmer, Waltham, MA, USA) as described previously.^1 Cellular protein amount was determined in parallel from 6 paired wells per cell line and experimental day, using the Bradford method.^2 The 1X lysis buffer (5X lysis buffer from Promega, diluted 1+4 [v/v] in ddH2O) was used as the lysis buffer. […]

We go through one compound from publication PMC11788587, “Validating Low‐Dose Iohexol as a Marker for Glomerular Filtration Rate by In Vitro and In Vivo Studies” (Clinical and Translational Science, 2025).

`CC(=O)N(CC(O)CO)c1c(I)c(C(=O)NCC(O)CO)c(I)c(C(=O)NCC(O)CO)c1I` (stereo not drawn) [iohexol]: for the setting “20 mM iohexol”, the “Inhibitory effect (% reduction of specific activity)” value is “no notable inhibitory effects”. For the same compound, the inhibition at 1 min, 2 mM (human, stably transfected 293 cells expressing hOATP1B1, probe 3H-estrone sulfate, 2 mM iohexol, read-out: Inhibitory effect (% reduction of specific activity)) is -6.9%. Also, the inhibition at 1 min, 20 mM (human, stably transfected 293 cells expressing hOATP1B1, probe 3H-estrone sulfate, 20 mM iohexol, read-out: Inhibitory effect (% reduction of specific activity)) was 5.5%.
